The target in this experiment is T1, human LXRβ (Homo sapiens, UniProt P55055).
T1 construct: expressed in transfected cells; host or cells: HEK293 cells (ATCC CRL-1573), transient transfection with pFA-hLXRβ/GAL4 and pUAS
T1 sequence (P55055 222-460 limits assumed): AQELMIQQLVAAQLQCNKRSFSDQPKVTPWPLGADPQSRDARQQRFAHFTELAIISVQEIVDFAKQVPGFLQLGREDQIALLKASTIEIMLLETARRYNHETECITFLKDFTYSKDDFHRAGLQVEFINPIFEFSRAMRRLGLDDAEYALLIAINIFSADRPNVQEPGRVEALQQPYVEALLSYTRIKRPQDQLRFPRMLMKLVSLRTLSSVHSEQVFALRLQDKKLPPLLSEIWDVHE
In words: Assay for Transcriptional Activity of LXRβ (GAL4-hLXRβ LBD luciferase reporter, transient transfection). It counts as cell-based. Conditions: HEK293 cells transfected with pFA-hLXRβ/GAL4 and pUAS, 24 hours; for Emax: fold value in comparison with the control (DMSO-treated group); for EC50: increase of transcriptional activity of LXRβ, average of three independent tests. An outline of the steps: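 EC50 values, averaged over three independent runs, come from a four-parameter fit of 9-point half-log curves spanning 0.01–50 μM. Luciferase output was read in lysed HEK293 cells 24 h after dosing at 37 °C, following transient transfection with a GAL4-human LXRβ LBD fusion plus GAL4-responsive reporter.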

This is an account of results in patent US9376420B2 (YUHAN CORPORATION, priority 2012, dated 2016).

In the case of `O=S(=O)(C1CC1)N1CCN(c2ccc(C3CC(C(O)(C(F)(F)F)C(F)(F)F)=NN3c3ccccc3Cl)cc2)CC1` (stereo not shown) [Example 315, 1-(2-chloro-phenyl)-5-[4-(4-cyclopropanesulfonyl-piperazin-1-yl)-phenyl]-3-[di-(trifluoromethyl)-hydroxy-methyl]-4,5-dihydro-1H-pyrazole], the Emax is 59 fold and the EC50 stood at 1490 nM.
For `CCCS(=O)(=O)N1CC=C(c2ccc(C3CC(C(O)(C(F)(F)F)C(F)(F)F)=NN3c3ccccc3Cl)cc2)CC1` (stereo not shown) [Example 300, 1-(2-chloro-phenyl)-5-{4-[1-(propane-1-sulfonyl)-1,2,3,6-tetrahydropyridin-4-yl]-phenyl}-3-[di-(trifluoromethyl)-hydroxy-methyl]-4,5-dihydro-1H-pyrazole] the same measures were 53 fold and 635 nM.
The compound `CS(=O)(=O)c1ccc(-c2ccc(C3CC(C(O)(C(F)(F)F)C(F)(F)F)=NN3c3ccc(F)cc3F)cc2)cc1C#N` (stereo not shown) [Example 390, 1-(2,4-difluoro-phenyl)-5-(3′-cyano-4′-methanesulfonyl-biphenyl-4-yl)-3-[di-(trifluoromethyl)-hydroxy-methyl]-4,5-dihydro-1H-pyrazole] displayed an Emax of 55 fold and an EC50 of 318 nM.
`C[S+]([O-])c1ccc(-c2cccc(C3CC(C(F)(F)C(F)(F)F)=NN3c3ccc(Cl)cc3Cl)c2)cc1` (stereo not shown) [Example 42, 1-(2,4-dichloro-phenyl)-5-(4′-methanesulfinyl-biphenyl-3-yl)-3-pentafluoroethyl-4,5-dihydro-1H-pyrazole] gave an Emax of 103 fold and an EC50 of 593 nM.
For `COc1ncc(-c2ccc(C3CC(C(O)(C(F)(F)F)C(F)(F)F)=NN3c3ccccc3Cl)cc2)cn1` (stereo not shown) [Example 279, 1-(2-chloro-phenyl)-5-[4-(2-methoxy-pyrimidin-5-yl)-phenyl]-3-[di-(trifluoromethyl)-hydroxy-methyl]-4,5-dihydro-1H-pyrazole] the same measures were 67 fold and 931 nM.
Consider `CSc1ccc(-c2cccc(C3CC(C(F)(F)C(F)(F)F)=NN3c3ccc(F)cc3F)c2)cc1` (stereo not shown) [Example 30, 1-(2,4-difluoro-phenyl)-5-(4′-methylsulfanyl-biphenyl-3-yl)-3-pentafluoroethyl-4,5-dihydro-1H-pyrazole], for which the Emax stood at 66 fold and the EC50 was determined as 8570 nM.
`CS(=O)(=O)c1ccc(-c2cccc(C3CC(C(F)(F)C(F)(F)F)=NN3c3ccc(F)cc3F)c2)cc1C#N` (stereo not shown) [Example 70, 5-[3′-cyano-4′-(methanesulfonyl)-biphenyl-3-yl]-1-(2,4-difluoro-phenyl)-3-pentafluoroethyl-4,5-dihydro-1H-pyrazole] registered an Emax of 62 fold and an EC50 of 466 nM.
For `CC(=O)c1cccc(-c2ccc(C3CC(C(O)(C(F)(F)F)C(F)(F)F)=NN3c3ccccc3Cl)cc2F)c1` (stereo not shown) [Example 361, 5-(3′-acetyl-2-fluoro-biphenyl-4-yl)-1-(2-chloro-phenyl)-3-[di-(trifluoromethyl)-hydroxy-methyl]-4,5-dihydro-1H-pyrazole] the same measures were 39 fold and 632 nM.
The corresponding values for `CS(=O)(=O)c1ccc(-c2ccc(C3CC(C(O)(C(F)(F)F)C(F)(F)F)=NN3c3ccccc3Cl)cc2)cc1C#N` (stereo not shown) [Example 290, 1-(2-chloro-phenyl)-5-[3′-cyano-4′-(methylsulfonyl)-biphenyl-4-yl]-3-[di-(trifluoromethyl)-hydroxy-methyl]-4,5-dihydro-1H-pyrazole] are 29 fold and 161 nM.
The corresponding values for `CN(C)S(=O)(=O)c1cccc(-c2cccc(N3N=C(C(F)(F)C(F)(F)F)CC3c3ccc(F)cc3F)c2)n1` (stereo not shown) [Example 209, 5-(2,4-difluoro-phenyl)-1-[3-(6-dimethylsulfamoyl-pyridin-2-yl)-phenyl]-3-pentafluoroethyl-4,5-dihydro-1H-pyrazole] are 20 fold and 5110 nM.
On to `CC(=O)c1ccc(-c2ccc(C3CC(C(O)(C(F)(F)F)C(F)(F)F)=NN3c3ccccc3Cl)cc2F)cc1` (stereo not shown) [Example 362, 5-(4′-acetyl-2-fluoro-biphenyl-4-yl)-1-(2-chloro-phenyl)-3-[di-(trifluoromethyl)-hydroxy-methyl]-4,5-dihydro-1H-pyrazole], for which the Emax was found to be 72 fold and a half-maximal effect (EC50) was put at 580 nM.
Compound `N#Cc1ccc(-c2ccc(C3CC(C(O)(C(F)(F)F)C(F)(F)F)=NN3c3ccccc3Cl)cc2)cn1` (stereo not shown) [Example 267, 1-(2-chloro-phenyl)-5-[4-(6-cyano-pyridin-3-yl)-phenyl]-3-[di-(trifluoromethyl)-hydroxy-methyl]-4,5-dihydro-1H-pyrazole] showed an Emax of 59 fold and an EC50 of 442 nM.
In turn, `CCOc1cccc(-c2ccc(C3CC(C(O)(C(F)(F)F)C(F)(F)F)=NN3c3ccccc3F)cc2)c1` (stereo not shown) [Example 336, 5-(3′-ethoxy-biphenyl-4-yl)-1-(2-fluoro-phenyl)-3-[di-(trifluoromethyl)-hydroxy-methyl]-4,5-dihydro-1H-pyrazole] registered an Emax of 72 fold and an EC50 of 1470 nM.
For `CN(C)S(=O)(=O)N1CC=C(c2cccc(C3CC(C(O)(C(F)(F)F)C(F)(F)F)=NN3c3ccccc3Cl)c2)CC1` (stereo not shown) [Example 240, 1-(2-chloro-phenyl)-5-[3-(1-dimethylsulfamoyl-1,2,3,6-tetrahydropyridin-4-yl)-phenyl]-3-[di-(trifluoromethyl)-hydroxy-methyl]-4,5-dihydro-1H-pyrazole] the same measures were 44 fold and 157 nM.
For `CS(=O)(=O)N1CCCN(c2ccc(C3CC(C(O)(C(F)(F)F)C(F)(F)F)=NN3c3ccccc3Cl)cc2)CC1` (stereo not shown) [Example 322, 1-(2-chloro-phenyl)-5-[4-(4-methanesulfonyl-homopiperazin-1-yl)-phenyl]-3-[di-(trifluoromethyl)-hydroxy-methyl]-4,5-dihydro-1H-pyrazole] the same measures were 64 fold and 778 nM.
The corresponding values for `CS(=O)(=O)N1CCN(c2ccc(C3CC(C(O)(C(F)(F)F)C(F)(F)F)=NN3c3ccccc3Cl)cn2)CC1` (stereo not shown) [Example 360, 1-(2-chloro-phenyl)-5-[6-(4-methanesulfonyl-piperazin-1-yl)-pyridin-3-yl]-3-[di-(trifluoromethyl)-hydroxy-methyl]-4,5-dihydro-1H-pyrazole] are 45 fold and 10200 nM.
The compound `CN(CCCS(=O)(=O)c1ccc(-c2cccc(C3CC(C(F)(F)C(F)(F)F)=NN3c3ccc(F)cc3F)c2)cc1)C(=O)OC(C)(C)C` (stereo not shown) [Example 86, 5-{4′-[3-(N-BOC-N-methyl-amino)-propane-1-sulfonyl]-biphenyl-3-yl}-1-(2,4-difluoro-phenyl)-3-pentafluoroethyl-4,5-dihydro-1H-pyrazole] registered an Emax of 45 fold and an EC50 of 958 nM.
The corresponding values for `O=S(=O)(C1CC1)N1CCCN(c2ccc(C3CC(C(O)(C(F)(F)F)C(F)(F)F)=NN3c3ccccc3Cl)cc2)CC1` (stereo not shown) [Example 325, 1-(2-chloro-phenyl)-5-[4-(4-cyclopropanesulfonyl-homopiperazin-1-yl)-phenyl]-3-[di-(trifluoromethyl)-hydroxy-methyl]-4,5-dihydro-1H-pyrazole] are 53 fold and 800 nM.
The corresponding values for `CCOc1cccc(-c2ccc(C3CC(C(O)(C(F)(F)F)C(F)(F)F)=NN3c3ccccc3Cl)cc2)c1` (stereo not shown) [Example 251, 1-(2-chloro-phenyl)-5-(3′-ethoxy-biphenyl-4-yl)-3-[di-(trifluoromethyl)-hydroxy-methyl]-4,5-dihydro-1H-pyrazole] are 96 fold and 1950 nM.
For `COc1ncc(-c2cccc(C3CC(C(F)(F)C(F)(F)F)=NN3c3ccc(F)cc3F)c2)cc1CO` (stereo not shown) [Example 90, 1-(2,4-difluoro-phenyl)-5-[3-(5-hydroxymethyl-6-methoxy-pyridin-3-yl)-phenyl]-3-pentafluoroethyl-4,5-dihydro-1H-pyrazole] the same measures were 33 fold and 2650 nM.
Compound `CS(=O)(=O)c1cncc(-c2cccc(N3N=C(C(F)(F)C(F)(F)F)CC3c3ccc(F)cc3F)c2)c1` (stereo not shown) [Example 207, 5-(2,4-difluoro-phenyl)-1-[3-(5-methanesulfonyl-pyridin-3-yl)-phenyl]-3-pentafluoroethyl-4,5-dihydro-1H-pyrazole] displayed an Emax of 16 fold and an EC50 of 6140 nM.
The corresponding values for `CS(=O)(=O)c1ccc(-c2cc(C3CC(C(F)(F)C(F)(F)F)=NN3c3ccc(F)cc3F)ccc2F)cc1` (stereo not shown) [Example 129, 1-(2,4-difluoro-phenyl)-5-(6-fluoro-4′-methanesulfonyl-biphenyl-3-yl)-3-pentafluoroethyl-4,5-dihydro-1H-pyrazole] are 44 fold and 7990 nM.
The corresponding values for `CS(=O)(=O)c1ccc(-c2ccc(C3CC(C(O)(C(F)(F)F)C(F)(F)F)=NN3c3ccccc3Cl)cc2)cn1` (stereo not shown) [Example 335, 1-(2-chloro-phenyl)-5-[4-(6-methanesulfonyl-pyridin-3-yl)-phenyl]-3-[di-(trifluoromethyl)-hydroxy-methyl]-4,5-dihydro-1H-pyrazole] are 94 fold and 136 nM.
